ChEMBL document CHEMBL1201862, “PubChem BioAssay data set” (2004)
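Protocol summary: plate cells (96-well), add compound at 5 concentrations, incubate 48 h, interpolate endpoints linearly. GI50 = concentration required for 50% inhibition of growth.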 The source made the active and inactive calls. Cut-off read from the data, not from the text of the source: active = GI50 up to about 1.1 µM and inactive = higher.

What was measured:
Assay in all cases: DTP human tumour cell line panel, 48 h
OVCAR-5 = test system: OVCAR-5
SNB-75 = test system: SNB-75
UO-31 = test system: UO-31
SF-539 = test system: SF-539
OVCAR-8 = test system: OVCAR-8
OVCAR-4 = test system: OVCAR-4
COLO 205 = test system: COLO 205
A498 = test system: A498
SN12C = test system: SN12C
SR = test system: SR
MOLT-4 = test system: MOLT-4
SNB-19 = test system: SNB-19
HT-29 = test system: HT-29
HOP-62 = test system: HOP-62
HCT-116 = test system: HCT-116
CAKI-1 = test system: CAKI-1
NCI-H460 = test system: NCI-H460
HCT-15 = test system: HCT-15
HCC 2998 = test system: HCC 2998

| SMILES | GI50 (OVCAR-5) | GI50 (SNB-75) | GI50 (UO-31) | GI50 (SF-539) | GI50 (OVCAR-8) | GI50 (OVCAR-4) | GI50 (COLO 205) | GI50 (A498) | GI50 (SN12C) | GI50 (SR) | GI50 (MOLT-4) | GI50 (SNB-19) | GI50 (HT-29) | GI50 (HOP-62) | GI50 (HCT-116) | GI50 (CAKI-1) | GI50 (NCI-H460) | GI50 (HCT-15) | GI50 (HCC 2998) |
| --- | --- | --- | --- | --- | --- | --- | --- | --- | --- | --- | --- | --- | --- | --- | --- | --- | --- | --- | --- |
| COC(=O)C(=O)C(C(=O)C(=O)Nc1cc(C)ccc1C)c1nc2ccccc2nc1O (stereo unspecified) | > 100 µM (inactive) | > 100 µM (inactive) | > 100 µM (inactive) | > 100 µM (inactive) | > 100 µM (inactive) | > 100 µM (inactive) | > 100 µM (inactive) | > 100 µM (inactive) | > 100 µM (inactive) | 30.3 µM (inactive) | 71.3 µM (inactive) | > 100 µM (inactive) | > 100 µM (inactive) | > 100 µM (inactive) | > 100 µM (inactive) | > 100 µM (inactive) | > 100 µM (inactive) | > 100 µM | > 100 µM (inactive) |
| Cc1nc(C)c(N2CCN(C(=O)NC(CCC(=O)O)C(=O)O)CC2)c(O)n1 (stereo unspecified) | > 100 µM (inactive) | < 0.01 µM (active) | > 100 µM (inactive) | > 100 µM (inactive) | > 100 µM (inactive) | > 100 µM (inactive) | > 100 µM (inactive) | > 100 µM (inactive) | > 100 µM (inactive) | > 100 µM (inactive) | > 100 µM (inactive) | > 100 µM (inactive) | > 100 µM (inactive) | > 100 µM (inactive) | > 100 µM (inactive) | > 100 µM (inactive) | > 100 µM (inactive) | > 100 µM | > 100 µM (inactive) |
| CCOC(=O)c1cc2c3c(cc(OC)c2[nH]1)N(C(=O)OCC)CC3 | > 100 µM (inactive) | > 100 µM (inactive) | > 100 µM (inactive) | > 100 µM (inactive) | > 100 µM (inactive) | > 100 µM (inactive) | > 100 µM (inactive) | > 100 µM (inactive) | > 100 µM (inactive) | 86.1 µM (inactive) | > 100 µM (inactive) | > 100 µM (inactive) | > 100 µM (inactive) | > 100 µM (inactive) | > 100 µM (inactive) | > 100 µM (inactive) | > 100 µM (inactive) | > 100 µM | > 100 µM (inactive) |
| CC1=NN(c2nc(N)nc(C(C#N)C(=O)c3cc4c(cc3Cl)Sc3nccn3S4(=O)=O)n2)C(C)(C)C1 (stereo unspecified) | > 100 µM (inactive) | 16.1 µM (inactive) | 30.1 µM (inactive) | 37.7 µM (inactive) | 20.7 µM (inactive) | 10.1 µM (inactive) | 24.9 µM (inactive) | 52.1 µM (inactive) | 17.3 µM (inactive) | 4.4 µM (inactive) | 13 µM (inactive) | 55.6 µM (inactive) | 34.3 µM (inactive) | 34.7 µM (inactive) | 18 µM (inactive) | 13.5 µM (inactive) | 8.83 µM (inactive) | 6.44 µM | 8.41 µM (inactive) |
| COC(=O)Cc1cc(=O)n2c3ccccc3n(C)c2c1C#N | > 100 µM (inactive) | 68.7 µM (inactive) | > 100 µM (inactive) | > 100 µM (inactive) | > 100 µM (inactive) | > 100 µM (inactive) | > 100 µM (inactive) | > 100 µM (inactive) | > 100 µM (inactive) | > 100 µM (inactive) | > 100 µM (inactive) | > 100 µM (inactive) | > 100 µM (inactive) | > 100 µM (inactive) | > 100 µM (inactive) | > 100 µM (inactive) | > 100 µM (inactive) | > 100 µM | > 100 µM (inactive) |
| Nc1ccc2c3c1cccc3c(=O)n1c3ccc(Cc4ccc5c(c4)nc4c6ccc(N)c7cccc(c(=O)n54)c76)cc3nc21 | > 100 µM (inactive) | 30.8 µM (inactive) | > 100 µM (inactive) | > 100 µM (inactive) | > 100 µM (inactive) | > 100 µM (inactive) | > 100 µM (inactive) | > 100 µM (inactive) | > 100 µM (inactive) | > 100 µM (inactive) | > 100 µM (inactive) | > 100 µM (inactive) | > 100 µM (inactive) | > 100 µM (inactive) | > 100 µM (inactive) | > 100 µM (inactive) | > 100 µM (inactive) |  | > 100 µM (inactive) |
| COc1cc(S(=O)(=O)Nc2ccc(-c3csc(N4C(=O)CSC4c4ccccc4)n3)cc2)ccc1Cl (stereo unspecified) | > 100 µM (inactive) | 67.3 µM (inactive) | 79.4 µM (inactive) | 80.7 µM (inactive) | > 100 µM (inactive) | 29.9 µM (inactive) | 35.6 µM (inactive) | 0.116 µM (active) | > 100 µM (inactive) | 32.3 µM (inactive) | 25.6 µM (inactive) | 13.7 µM (inactive) | 54.2 µM (inactive) | 81.8 µM (inactive) | 54 µM (inactive) | > 100 µM (inactive) | 31.4 µM (inactive) | > 100 µM | 20.4 µM (inactive) |
| [N-]=[N+]=Nc1ccc2c(c1)Sc1ccccc1N2CCCCN1CCN(Cc2ccc(C(=O)c3ccccc3)cc2)CC1 | 4.16 µM (inactive) | 4.32 µM (inactive) | 2.51 µM (inactive) | 3.35 µM (inactive) | 3.4 µM (inactive) | 4.6 µM (inactive) | 1.79 µM (inactive) | 17.4 µM (inactive) | > 25.3 µM (inactive) | 3 µM (inactive) | 3.6 µM (inactive) | > 100 µM (inactive) | 1.46 µM (inactive) | > 38.9 µM (inactive) | 3.43 µM (inactive) | 7.13 µM (inactive) | 2.85 µM (inactive) | 3.47 µM | 2.13 µM (inactive) |
| CCn1c(SCc2nnc(Nc3ccccc3)s2)nc2ccccc2c1=O | 6.14 µM (inactive) | 3.85 µM (inactive) | 3.08 µM (inactive) | 3.27 µM (inactive) | 2.02 µM (inactive) | 1.82 µM (inactive) | 16.1 µM (inactive) | 1.67 µM (inactive) | 4.23 µM (inactive) | 23.7 µM (inactive) | 42.6 µM (inactive) | 3.5 µM (inactive) | 2.95 µM (inactive) | 2.17 µM (inactive) | 1.95 µM (inactive) | 3.04 µM (inactive) | 1.45 µM (inactive) | 20.7 µM | 6.68 µM (inactive) |
| COc1ccc2c(c1)CCC/C2=N\NS(=O)(=O)c1c(C)cc(C)cc1C | 39.6 µM (inactive) | 13.8 µM (inactive) | 28.9 µM (inactive) | 19.2 µM (inactive) | 30.9 µM (inactive) | 29.9 µM (inactive) | 23.9 µM (inactive) | 31.8 µM (inactive) | 21.8 µM (inactive) | 20.2 µM (inactive) | 25.5 µM (inactive) | 41.6 µM (inactive) | 20.7 µM (inactive) | 43.4 µM (inactive) | 18.3 µM (inactive) | 38.5 µM (inactive) | 31 µM (inactive) | 30.3 µM | 41.5 µM (inactive) |
| Cc1cc2c(cc1Cl)SC(c1ccccc1)C(=O)NS2(=O)=O (stereo unspecified) | 45.9 µM (inactive) | 19.7 µM (inactive) | 28.1 µM (inactive) | 26.7 µM (inactive) | 36.2 µM (inactive) | 35.4 µM (inactive) |  | 26.9 µM (inactive) |  | 27.5 µM (inactive) | 26 µM (inactive) |  | 32 µM (inactive) | 44.3 µM (inactive) | 20.5 µM (inactive) | 38.9 µM (inactive) | 30.3 µM (inactive) | 25 µM | 30.3 µM (inactive) |
| CC(=O)OCC1OC(n2c(C#N)cc(=O)[nH]c2=O)CC1OC(C)=O (stereo unspecified) | > 100 µM (inactive) | > 100 µM (inactive) | > 100 µM (inactive) | > 100 µM (inactive) | > 100 µM (inactive) | > 100 µM (inactive) | > 100 µM (inactive) | > 100 µM (inactive) | > 100 µM (inactive) | > 100 µM (inactive) | > 100 µM (inactive) | > 100 µM (inactive) | > 100 µM (inactive) | > 100 µM (inactive) | > 100 µM (inactive) | > 100 µM (inactive) | > 100 µM (inactive) | > 100 µM | > 10 µM (inactive) |
| O=C(O)c1ccccc1CC(Cc1ccc2c(c1)CCC2)C(=O)O (stereo unspecified) | > 100 µM (inactive) | > 100 µM (inactive) | > 100 µM (inactive) | > 100 µM (inactive) | > 100 µM (inactive) | > 100 µM (inactive) | > 100 µM (inactive) | > 100 µM (inactive) | > 100 µM (inactive) | 8.07 µM (inactive) | > 100 µM (inactive) | > 100 µM (inactive) | > 100 µM (inactive) | > 100 µM (inactive) | > 100 µM (inactive) | > 100 µM (inactive) | > 100 µM (inactive) | > 100 µM | > 100 µM (inactive) |
| CN(C)/C=N/c1ccc2nonc2c1 | > 100 µM (inactive) | > 100 µM (inactive) | > 100 µM (inactive) | > 100 µM (inactive) | > 100 µM (inactive) | > 100 µM (inactive) | > 100 µM (inactive) | > 100 µM (inactive) | > 100 µM (inactive) | > 100 µM (inactive) | > 100 µM (inactive) | > 100 µM (inactive) | > 100 µM (inactive) | > 100 µM (inactive) | > 100 µM (inactive) | > 100 µM (inactive) | > 100 µM (inactive) | > 100 µM | > 100 µM (inactive) |
| O=C(Nc1nn(C(=O)c2cccnc2)c(=O)s1)c1ccc(Cl)cc1 | > 100 µM (inactive) | 29.4 µM (inactive) | 1.8 µM (inactive) | 29.4 µM (inactive) | > 100 µM (inactive) | 84.7 µM (inactive) | 40.6 µM (inactive) | > 100 µM (inactive) | > 100 µM (inactive) | > 100 µM (inactive) | 28.1 µM (inactive) | > 100 µM (inactive) | > 100 µM (inactive) | > 100 µM (inactive) | 84.5 µM (inactive) | 40.6 µM (inactive) | > 100 µM (inactive) | 80.4 µM | > 100 µM (inactive) |
